From patent publication US20090247520A1, “INHIBITORS OF ANTIGEN RECEPTOR-INDUCED NF-kappa B ACTIVATION” (The Burnham Institute for Medical Research, priority 2008, published 2009)

Legend:
Format in all cases: cell-based
[1] = test system: NOD2 (NLRC2) induced NF-κB-luciferase reporter gene activity; assay: NF-κB reporter in HEK293-NF-κB-luc cells over-expressing NOD2; details: CID-2858522 4 μM, IKK inhibitor 10 μM
Method: (§1) FIGS. 3 (A-F) HEK293-NF-κB-luc cells were pretreated with CID-2858522 (4 μM), IKK inhibitor, BMS-335541 (10 μM), or PKC inhibitor, Bisindolylmaleimide I (1 μM) for 2 hrs and then transfected with plasmids encoding CD4/TLR4 (A), CD40 (B), NOD1 (C), NOD2 (D), cIAP2-MALT1 (E), or XIAP and TAB (F), or pcDNA as control (compounds were not removed). After 48 hrs, luciferase activity was measured expressing data as fold increase relative to unstimulated cells (mean±SD; n=3). (G-H) HEK293-NF-κB-luc cells were pretreated with CID-2858522 (4 μM), or IKK inhibitor, BMS-335541 (10 μM) for 2 hrs and then cultured with 2 μM doxorubicin (G) or 16 μM retinoic acid (H). After 48 hrs, luciferase activity was measured as above.
(§2) Counter Screening and Secondary Assays. To counter-screen for inhibitors of the TNF pathway, HEK293-NFκB-Luc cells were seeded at 10^5 cells per well in 90 μL medium in white 96-well plates (Greiner Bio-One) and cultured overnight, before adding compounds (5 μL in medium) to cells. […] Luciferase activity was measured using Britelite kit (Perkin Elmer). […] Cells were cultured in medium containing CID-2858522 or other compounds and luciferase activity was measured 48 h later. […] Reactions were then initiated by addition of 50 μL 160 nM ATP (Sigma) in PBS and luciferase activity was measured 2 h later using a luminometer (LJL Biosystems, Sunnyvale, Calif.).

[2] = test system: cIAP2/MALT oncoprotein induced NF-κB activation; assay: NF-κB reporter in 293-NF-κB-luciferase cells transfected with cIAP2/MALT; details: CID-2858522 4 μM, IKK inhibitor 10 μM
Method: as §1
Counter Screening and Secondary Assays. To counter-screen for inhibitors of the TNF pathway, HEK293-NFκB-Luc cells were seeded at 10^5 cells per well in 90 μL medium in white 96-well plates (Greiner Bio-One) and cultured overnight, before adding compounds (5 μL in medium) to cells. After 2 h incubation, 5 μL TNF (200 ng/mL) (R&D Systems) was added (final concentration 10 ng/mL) and cells were incubated for 16 h. Luciferase activity was measured using Britelite kit (Perkin Elmer). To counter-screen for inhibitors of NF-κB induced by TLR4, CD40, NOD1, NOD2, cIAP2/MALT, or XIAP/TAB, the 293-NF-κB-luc cells cultured in 96 well plates as above were pretreated with compounds for 2 h and then transfected using Lipofectamine 2000 with various plasmids including pcDNA3 (“empty vector” control) or plasmids encoding CD4-TLR4, CD40, NOD1, NOD2, cIAP2/MALT, XIAP/TAB, using 0.2 μL of transfection reagent containing 100 ng DNA per well. Cells were cultured in medium containing CID-2858522 or other compounds and luciferase activity was measured 48 h later. […] Reactions were then initiated by addition of 50 μL 160 nM ATP (Sigma) in PBS and luciferase activity was measured 2 h later using a luminometer (LJL Biosystems, Sunnyvale, Calif.).

[3] = test system: retinoic acid-induced NF-κB activity; assay: NF-κB reporter in HEK293-NF-κB-luc cells treated with all-trans-retinoic acid; details: 16 μM retinoic acid; CID-2858522 4 μM, IKK inhibitor 10 μM
Method: as §1, §2

[4] = test system: CARMA/MALT1/Bcl-10 complex; assay: Co-immunoprecipitation of CARMA1/CARMA3 with Bcl-10, MALT, TRAF6, IKKγ, Caspase-8 in transfected HEK293 cells; details: for inhibition of PMA-induced association of CARMA1 or CARMA3 with Bcl-10, MALT, TRAF6, IKKγ, Caspase-8: CID-2858522 4 μM, Bisindolylmaleimide I 1 μM
Method: FIG. 7. CID-285852 inhibits IKKβ phosphorylation induced by PKC activators. (A) HEK293 cells were cultured in 0.5% FBS medium for 24 h and then treated with CID-2858522 (4 μM) or PKC inhibitor, Bisindolylmaleimide I (1 μM) for 2 hrs followed by PMA/Ionomycin (10 ng/mL; 5 ng/mL) for 2 h. Cell lysates were subjected to immunoprecipitation using anti-CARMA1 antibody and analyzed by immunoblotting with anti-phospho-CARMA1 antibody or anti-CARMA1 antibody. (B-E) HEK293 cells were transfected with plasmids encoding myc-CARMA1 in combination with plasmids encoding various other proteins including Caspase-8 (cys287ala) (B), HA-IKK-γ (C), HA-TAK1 (D), and TRAF6 (E). After 36 h. cells were cultured in 0.5% FBS medium for 12 h and then treated with CID-2858522 (4 μM) or Bisindolylmaleimide I (1 μM) for 2 hrs, followed by PMA/Ionomycin treatment (10 ng/mL; 5 ng/mL) for 2 hrs. Cell lysates were immunoprecipated using anti-myc antibody and analyzed by immunoblotting using anti-Caspase8 (B), anti-HA (C,D), or anti-TRAF6 (E) antibodies. (F) HEK293 cells were treated with CID-2858522 (4 μM) or PKC inhibitor (1 μM) followed by PMA/Ionomycin (10 ng/mL; 5 ng/mL) treatment for 2 hrs. Cell lysates were normalized for protein content and analyzed by immunoblotting using anti-FLIP and anti-alpha-tubulin antibodies. […] Cell lysates were immunoprecipitated using anti-IKK-β and analyzed by immunoblotting using anti-phospho-IKK-β antibody or anti-IKK-β antibody (as loading control). Approximate molecular weights of all proteins are indicated in kiloDaltons.
Mapping the site of action of CID-2858522 in the antigen receptor-activated NF-κB pathway. […] To characterize the effects of CID-2858522 on these possible targets of the antigen receptor pathway for NF-κB activation, we first evaluated PMA-induced phosphorylation of Carmal, by phospho-specific antibody immunoblotting, finding no effect of CID-2858522 on this molecular event that initiates formation of the CBM complex (FIG. 7A). […]

[5] = test system: MALT1-caspase-8 interaction; assay: PMA-induced MALT1-caspase-8 interaction in HEK293 cells; details: HEK293 over-expressing Flag-MALT1 and Caspase-8, PMA
Text: Caspase-8 plays an essential role in antigen receptor-mediated NF-κB activation. It was recently reported that MALT1 interacts with Caspase-8 and activates this protease upon antigen receptor activation. […] We then examined if CID-2858522 affected the pathway at this point. PMA induced significant MALT1-caspase-8 interaction in HEK293 cells over-expressing Flag-MALT1 and Caspase-8. […] The caspase-8 p43/41 processing intermediate was generated in HEK293 cells after PMA/Ion treatment. […] We then assessed the effects of CID-2858522 on PMA-induced proteolytic processing of c-FLIP, a Caspase-8-mediated event recently shown to be required for antigen receptor mediated NF-κB activation.

SMILES | inhibition of NOD2-induced NF-κB reporter [1] | suppression of cIAP2/MALT-driven NF-κB activation [2] | suppression of retinoic acid-induced NF-κB activity [3] | inhibition of PMA-induced association of CARMA1 or CARMA3 with Bcl-10, MALT, TRAF6, IKKγ, Caspase-8 [4] | inhibition of MALT1-caspase-8 interaction [5] | suppression of cIAP2/MALT-driven NF-κB activation ([2]; listed as CID-288522) | disruption of CARMA/MALT1/Bcl-10 (CMB) complex formation ([4]; PMA/Ionomycin, cells or lysate)
Cc1ccc2nc(NCCN)c3ncc(C)n3c2c1 [BMS-345541, reference compound] | inhibited | effectively suppressed | significantly suppressed |  |  |  | 
CN(C)CCCn1cc(C2=C(c3c[nH]c4ccccc34)C(=O)NC2=O)c2ccccc21 [Bisindolylmaleimide I, reference compound] |  |  |  | inhibited | inhibited |  | 
Cc1cc2nc(NCCCO)n(CC(=O)c3cc(C(C)(C)C)c(O)c(C(C)(C)C)c3)c2cc1C [Compound 1, 2-(2-(3-Hydroxypropylamino)-5,6-dimethyl-1H-benzo[d]imidazol-1-yl)-1-(3,5-di-tert-butyl-4-hydroxyphenyl)ethanone] | did not inhibit | did not inhibit | did not inhibit | not by CID-2858522 | not by CID-2858522 | did not | did not disrupt
